# Experimental data published in ChEMBL document CHEMBL5346925, “3,4-Dihydrobenzo[e][1,2,3]oxathiazine 2,2-dioxide analogs act as potential AMPA receptor potentiators with antidepressant activity” (Eur J Med Chem, 2023).
# How the values were obtained:
# [1] = Ratio of drug concentration in brain to plasma in Sprague-Dawley rat at 1 mg/kg, po measured after 6 hrs by LC-MS/MS analysis; type: ADME, organism-based; details: read-out: BPR
# [2] = Drug concentration in Sprague-Dawley rat plasma at 1 mg/kg, po measured after 1 hr by LC-MS/MS analysis; type: ADME, organism-based
# [3] = Drug concentration in Sprague-Dawley rat brain at 1 mg/kg, po measured after 6 hrs by LC-MS/MS analysis; type: ADME, organism-based; details: read-out: Ct
# [4] = Toxicity in mouse assessed as histopathological changes in spleen at 0.2 to 0.4 mg/kg, ip administered once daily for 2 weeks and measured after 15 days by H and E staining based analysis; type: organism-based; details: in vivo, 360 h, dose 0.2-0.4 mg/kg, time 15 day
# [5] = Drug concentration in Sprague-Dawley rat brain at 1 mg/kg, po measured after 24 hrs by LC-MS/MS analysis; type: ADME, organism-based; details: read-out: Ct
# [6] = Drug concentration in Sprague-Dawley rat brain at 1 mg/kg, po measured after 4 hrs by LC-MS/MS analysis; type: ADME, organism-based; details: read-out: Ct
# [7] = Drug concentration in Sprague-Dawley rat plasma at 1 mg/kg, po measured after 8 hr by LC-MS/MS analysis; type: ADME, organism-based
# [8] = Cmax in Sprague-Dawley rat at 1 mg/kg, po by LC-MS/MS analysis; type: ADME, organism-based; parameters: dose 1 mg/kg, route po; details: in vivo
# [9] = AUC (0 to infinity) in Sprague-Dawley rat at 1 mg/kg, po by LC-MS/MS analysis; type: ADME, organism-based; parameters: dose 1 mg/kg, route po; details: in vivo
# [10] = Half life in Sprague-Dawley rat at 1 mg/kg, po by LC-MS/MS analysis; type: ADME, organism-based; details: in vivo
# [11] = Drug concentration in Sprague-Dawley rat plasma at 1 mg/kg, po measured after 4 hr by LC-MS/MS analysis; type: ADME, organism-based
# [12] = Ratio of drug concentration in brain to plasma in Sprague-Dawley rat at 1 mg/kg, po measured after 8 hrs by LC-MS/MS analysis; type: ADME, organism-based; details: read-out: BPR
# [13] = Oral bioavailability in Sprague-Dawley rat at 1 mg/kg by LC-MS/MS analysis; type: ADME, organism-based; details: in vivo
smiles,measurement,setting,value
O=S1(=O)NCc2cccc(-c3ccc(-c4ccccc4F)cc3)c2O1,Kp at 6 h,[1],1.73
same,concentration at 1 h,[2],132 ng/mL
same,concentration at 6 h,[3],93 ng/g
same,Activity,[4],Non-Toxic
same,concentration at 24 h,[5],6.05 ng/g
same,concentration at 4 h,[6],120 ng/g
same,concentration at 8 h,[7],25.5 ng/mL
same,Cmax,[8],142 ng/mL
same,AUC(0-inf),[9],833 ng·h/mL
same,half-life,[10],4.84 h
same,concentration at 4 h,[11],79.3 ng/mL
same,Kp at 8 h,[12],1.5
same,bioavailability,[13],67.2%
